ChEMBL document CHEMBL2216752, “Carnitine palmitoyltransferase (CPT) modulators: a medicinal chemistry perspective on 35 years of research” (J Med Chem, 2011)

Legend:
Rattus norvegicus [1] = test: Reduction in hepatic glucose production in STZ-treated rat at 12.5 to 25 mg/kg, po; type: functional; parameters: scale not given: the % may be the effect or the level left; conditions: dose mg/kg 12.5-25
Rattus norvegicus [2] = test: Reduction in fasting serum FFAs level in high fat diet fed STZ-treated rat at 12.5 mg/kg/day, po for up to 4 weeks measured 3 days to 1 week post dose; type: functional; parameters: scale not given: the % may be the effect or the level left
[3] = Cytotoxicity against human OCI-AML3 cells assessed as reduction in cell viability; type: functional, cell-based; conditions: OCI-AML-3
Homo sapiens [4] = test: Reduction in basal hepatic glucose production in NIDD patient at 50 to 200 mg/day, po bid for 3 days before meals; type: functional; parameters: scale not given: the % may be the effect or the level left
Homo sapiens [5] = test: Reduction in plasma TG level in NIDD patient at 50 to 200 mg/day, po bid for 3 days before meals; type: functional; parameters: scale not given: the % may be the effect or the level left
Homo sapiens [6] = test: Reduction in beta-hydroxy butyrate level in NIDD patient at 12.5 to 50 mg/day, po for 14 days; type: functional; parameters: scale not given: the % may be the effect or the level left
Rattus norvegicus [7] = test: Reduction in fasting plasma glucose level in STZ-treated rat at 12.5 to 25 mg/kg, po; type: functional; parameters: scale not given: the % may be the effect or the level left; conditions: dose mg/kg 12.5-25
Homo sapiens [8] = species: Homo sapiens; test: Increase in maximum cardiac output in CHF patient at 80 mg/day for 3 months measured during exercise; type: functional
Mus musculus [9] = test: Reduction in urine volume in db/db mouse at 10 to 20 mg/kg/day, po dosed life long through food-admix; type: functional; parameters: scale not given: the % may be the effect or the level left
Homo sapiens [10] = species: Homo sapiens; test: Increase in left ventricular ejection fraction in CHF patient at 80 mg/day for 3 months; type: functional, Heart left ventricle
Homo sapiens [11] = test: Increase in metabolic clearance of glucose in NIDD patient at 50 mg, po administered as single dose; type: functional
Homo sapiens [12] = test: Reduction in plasma cholesterol level in NIDD patient at 50 to 200 mg/day, po bid for 3 days before meals; type: functional; parameters: scale not given: the % may be the effect or the level left
Mus musculus [13] = test: Reduction in daily water intake in db/db mouse at 10 to 20 mg/kg/day, po dosed life long through food-admix; type: functional; parameters: scale not given: the % may be the effect or the level left
Mus musculus [14] = test: Reduction in fasting glucose in db/db mouse at 10 to 20 mg/kg/day, po dosed life long through food-admix; type: functional; parameters: scale not given: the % may be the effect or the level left
Mus musculus [15] = test: Reduction in FBG level in db/db mouse at 50 mg/kg, po; type: functional; parameters: scale not given: the % may be the effect or the level left
MOLM-13 = test: Cytotoxicity against human MOLM13 cells assessed as reduction in cell viability; type: functional, cell-based
Mus musculus [16] = test: Reduction in FBG level in db/db mouse at 10 mg/kg, po; type: functional; parameters: scale not given: the % may be the effect or the level left
Homo sapiens [17] = test: Increase in plasma FFAs level in NIDD patient at 50 to 200 mg/day, po bid for 3 days before meals; type: functional
Homo sapiens [18] = test: Reduction in postprandial glucose in NIDD patient at 125 mg/day, po for 4 days (reference value: 10.5 mM); type: functional
Homo sapiens [19] = test: Increase in carbohydrate oxidation in NIDD patient at 100 mg/day, po for 3 days administered as single dose; type: functional
Homo sapiens [20] = test: Reduction in fat oxidation in NIDD patient at 100 mg/day, po for 3 days administered as single dose; type: functional; parameters: scale not given: the % may be the effect or the level left
Rattus norvegicus [21] = test: Reduction in blood glucose in STZ-treated fasted rat at 0.2 to 18 mg/kg, po measured 4 hrs post dose; type: functional; parameters: scale not given: the % may be the effect or the level left; conditions: dose mg/kg 0.2-18
Rattus norvegicus [22] = test: Reduction in blood KB level in STZ-treated fasted rat at 0.2 to 18 mg/kg, po; type: functional; parameters: scale not given: the % may be the effect or the level left; conditions: dose mg/kg 0.2-18
Rattus norvegicus [23] = test: Reduction in plasma TG in high fat diet fed STZ-treated rat at 12.5 mg/kg/day, po for up to 4 weeks measured 3 days to 1 week post dose; type: functional; parameters: scale not given: the % may be the effect or the level left
Homo sapiens [24] = test: Reduction in plasma LD/HDL ratio in NIDD patient at 12.5 to 50 mg/day, po for 14 days; type: functional; parameters: scale not given: the % may be the effect or the level left
Mus musculus [25] = test: Reduction in glucose excretion in db/db mouse at 10 to 20 mg/kg/day, po dosed life long through food-admix; type: functional; parameters: scale not given: the % may be the effect or the level left
Homo sapiens [26] = test: Reduction in plasma TG level in NIDD patient at 12.5 to 50 mg/day, po for 14 days; type: functional; parameters: scale not given: the % may be the effect or the level left
Homo sapiens [27] = test: Reduction in glucose appearance rate in NIDD patient at 100 mg/day, po for 3 days administered as single dose; type: functional; parameters: scale not given: the % may be the effect or the level left
Homo sapiens [28] = test: Increase in glucose MCR in NIDD patient at 50 mg, po administered as single dose; type: functional
Homo sapiens [29] = test: Reduction in whole body fat oxidation in human at 600 mg, po for 5 days; type: functional; parameters: scale not given: the % may be the effect or the level left
Rattus norvegicus [30] = test: Inhibition of CPT1 activity in blood KB level in STZ-treated fasted rat at 0.2 to 18 mg/kg, po; type: functional; conditions: dose mg/kg 0.2-18
Homo sapiens [31] = test: Reduction in fasting plasma glucose in NIDD patient at 50 to 200 mg/day, po bid for 3 days before meals; type: functional; parameters: scale not given: the % may be the effect or the level left
Homo sapiens [32] = test: Reduction in FBG level in NIDD patient at 12.5 to 50 mg/day, po for 14 days; type: functional; parameters: scale not given: the % may be the effect or the level left
Hepatocyte = test: Inhibition of fatty acid synthesis in rat hepatocytes; type: functional, cell-based
Homo sapiens [33] = test: Reduction in BHB level in NIDD patient at 50 to 200 mg/day, po bid for 3 days before meals; type: functional; parameters: scale not given: the % may be the effect or the level left
Homo sapiens [34] = species: Homo sapiens; test: Increase in stroke volume in CHF patient at 80 mg/day for 3 months; type: functional

Compound `CCOC(=O)C1(CCCCCCOc2ccc(Cl)cc2)CO1` (racemic) [rac-ETOMOXIR] has an Activity (Rattus norvegicus [1]) of 32%, an Activity (Rattus norvegicus [2]) of 56% and an IC50 [3] of 51 µM. The Activity (Homo sapiens [4]) was 18%, the Activity (Homo sapiens [5]) was 54% and the Activity (Homo sapiens [6]) was 50%. It also gave an Activity (Rattus norvegicus [7]) of 32%, an Activity (Homo sapiens [8]) of 38% and an Activity (Mus musculus [9]) of 70%. For the same compound, the Activity (Homo sapiens [10]) was 25%, the Activity (Homo sapiens [11]) was 30% and the Activity (Homo sapiens [12]) was 24%. It also gave an Activity (Mus musculus [13]) of 50%, an Activity (Mus musculus [14]) of 50% and an Activity (Mus musculus [15]) of 55%. It also gave an IC50 (MOLM-13) of 51 µM, an Activity (Mus musculus [16]) of 43% and an Activity (Homo sapiens [17]) of 52%. It also gave an Activity (Homo sapiens [18]) of 8.3 mM, an Activity (Homo sapiens [19]) of 58% and an Activity (Homo sapiens [20]) of 18%. For the same compound, the Activity (Rattus norvegicus [21]) was 40%, the Activity (Rattus norvegicus [22]) was 87% and the Activity (Rattus norvegicus [23]) was 67%. It also gave an Activity (Homo sapiens [24]) of 35%, an Activity (Mus musculus [25]) of 70% and an Activity (Homo sapiens [26]) of 30%. The Activity (Homo sapiens [27]) was 8%, the Activity (Homo sapiens [28]) was 33% and the Activity (Homo sapiens [29]) was 13.7%. For the same compound, the “inhibition (INH)” value (Rattus norvegicus [30]) was “<=99%”, the Activity (Homo sapiens [31]) was 18% and the Activity (Homo sapiens [32]) was “<=45%”. For the same compound, the IC50 (Hepatocyte) was 2 µM, the Activity (Homo sapiens [33]) was 44% and the Activity (Homo sapiens [34]) was 30%.
